Laboratory results from US20240381760A1, “Compound, Semiconductor Layer Comprising Compound and Organic Electronic Device” (Novaled GmbH, priority 2021, published 2024).

Columns and labels:
Assay type in all cases: physicochemical
[1] = Rate onset temperature TRO in VTE source with QCM detector; details: 15 K/min, less than 10−5 mbar
Protocol: The rate onset temperature (TRO) is determined by loading 100 mg compound into a VTE source. As VTE source a point source for organic materials may be used as supplied by Kurt J. Lesker Company (www.lesker.com) or CreaPhys GmbH (http://www.creaphys.com). The VTE source is heated at a constant rate of 15 K/min at a pressure of less than 10−5 mbar and the temperature inside the source measured with a thermocouple. Evaporation of the compound is detected with a QCM detector which detects deposition of the compound on the quartz crystal of the detector. The deposition rate on the quartz crystal is measured in Angstrom per second. To determine the rate onset temperature, the deposition rate is plotted against the VTE source temperature. The rate onset is the temperature at which noticeable deposition on the QCM detector occurs. For accurate results, the VTE source is heated and cooled three time and only results from the second and third run are used to determine the rate onset temperature.
To achieve good control over the evaporation rate of an organic compound, the rate onset temperature may be in the range of 200 to 255° C. If the rate onset temperature is below 200° C. the evaporation may be too rapid and therefore difficult to control. If the rate onset temperature is above 255° C. the evaporation rate may be too low which may result in low tact time and decomposition of the organic compound in VTE source may occur due to prolonged exposure to elevated temperatures.
The rate onset temperature is an indirect measure of the volatility of a compound. The higher the rate onset temperature the lower is the volatility of a compound.

[2] = Sublimation temperature Tsubl in sublimation apparatus; details: 10−5 mbar
From the text: Under nitrogen in a glovebox, 0.5 to 5 g compound are loaded into the evaporation source of a sublimation apparatus. The sublimation apparatus consist of an inner glass tube consisting of bulbs with a diameter of 3 cm which are placed inside a glass tube with a diameter of 3.5 cm. The sublimation apparatus is placed inside a tube oven (Creaphys DSU 05/2.1). The sublimation apparatus is evacuated via a membrane pump (Pfeiffer Vacuum MVP 055-3C) and a turbo pump (Pfeiffer Vacuum THM071 YP). The pressure is measured between the sublimation apparatus and the turbo pump using a pressure gauge (Pfeiffer Vacuum PKR 251). When the pressure has been reduced to 10−5 mbar, the temperature is increased in increments of 10 to 30 K till the compound starts to be deposited in the harvesting zone of the sublimation apparatus. The temperature is further increased in increments of 10 to 30 K till a sublimation rate is achieved where the compound in the source is visibly depleted over 30 min to 1 hour and a substantial amount of compound has accumulated in the harvesting zone. The sublimation temperature, also named Tsubl, is the temperature inside the sublimation apparatus at which the compound is deposited in the harvesting zone at a visible rate and is measured in degree Celsius.

[3] = Decomposition temperature Tdec by TGA-DSC; details: onset of decomposition in TGA, 10 K/min, nitrogen
Protocol: The decomposition temperature Tdec is measured by loading a sample of 9 to 11 mg into a Mettler Toledo 100 μL aluminum pan without lid under nitrogen in a Mettler Toledo TGA-DSC 1 machine. The following heating program was used: 25° C. isothermal for 3 min; 25° C. to 600° C. with 10 K/min. The decomposition temperature was determined based on the onset of the decomposition in TGA.

[4] = Solubility in benzonitrile

Compound	Rate onset temperature TRO [1] [°C]	Sublimation temperature Tsubl [2]	Tdec [3] [°C]	Solubility in benzonitrile ([4]; at 60° C. (footnote 2)) [mg/ml^2)]	Solubility in benzonitrile ([4]; at 20° C.) [mg/mL]
CC(C)(C)C(=O)C=C([O-])C(F)(F)C(F)(F)C(F)(F)F.CC(C)(C)C(=O)C=C([O-])C(F)(F)C(F)(F)C(F)(F)F.CC(C)(C)C(=O)C=C([O-])C(F)(F)C(F)(F)C(F)(F)F.[Bi+3] [CC-5, Bi(fod)3]	<100	120 °C	>200		
N#C/C(C(=O)c1cc(C(F)(F)F)cc(C(F)(F)F)c1)=C(/[O][Cu][O]/C(=C(/C#N)C(=O)c1cc(C(F)(F)F)cc(C(F)(F)F)c1)c1cc(C(F)(F)F)cc(C(F)(F)F)c1)c1cc(C(F)(F)F)cc(C(F)(F)F)c1 [MC-1, bis(((Z)-1,3-bis(3,5-bis(trifluoromethyl)phenyl)-2-cyano-3-oxoprop-1-en-1-yl)oxy)copper]	204	261 °C	>319		
CC(C)(C)/C([O-])=C/C(=O)C(F)(F)C(F)(F)C(F)(F)F.CC(C)(C)/C([O-])=C/C(=O)C(F)(F)C(F)(F)C(F)(F)F.CC(C)(C)/C([O-])=C/C(=O)C(F)(F)C(F)(F)C(F)(F)F.[La+3] [CC-6, La(fod)3]	101	170 °C	>260		
CC(=O)C=C([O-])C(F)(F)F.CC(=O)C=C([O-])C(F)(F)F.CC(=O)C=C([O-])C(F)(F)F.[Bi+3] [CC-3, Bi(tfac)3]	<100	decomposition	>100		
CC(=O)/C=C(\[O-])C(F)(F)F.CC(=O)/C=C(\[O-])C(F)(F)F.[Cu+2] [CC-2, Cu(tfac)2]	<100	95-100 °C	>185		
CC(=O)C=C(C)[O-].CC(=O)C=C(C)[O-].[Cu+2] [CC-1, Cu(acac)2]	<100	110-120 °C	>280		
C/C(C(=O)c1ccnc(C(F)(F)F)c1)=C(/[O][Cu][O]/C(=C(/C)C(=O)c1ccnc(C(F)(F)F)c1)c1ccnc(C(F)(F)F)c1)c1ccnc(C(F)(F)F)c1 [MC-3, bis(((Z)-2-methyl-3-oxo-1,3-bis(2-(trifluoromethyl)pyridin-4-yl)prop-1-en-1-yl)oxy)copper]		decomposition	>300	10	
O=C(C=C([O-])C(F)(F)F)C(F)(F)F.O=C(C=C([O-])C(F)(F)F)C(F)(F)F.O=C(C=C([O-])C(F)(F)F)C(F)(F)F.[Bi+3] [CC-4, Bi(hfac)3]	<100	decomposition			
N#C/C(C(=O)C(F)(F)C(F)(F)F)=C(/[O][Cu][O]/C(=C(/C#N)C(=O)C(F)(F)C(F)(F)F)c1ccc(-c2cc(C(F)(F)F)cc(C(F)(F)F)c2)cc1)c1ccc(-c2cc(C(F)(F)F)cc(C(F)(F)F)c2)cc1 [MC-2, bis(((Z)-1-(3′,5′-bis(trifluoromethyl)-[1,1′-biphenyl]-4-yl)-2-cyano-4,4,5,5,5-pentafluoro-3-oxopent-1-en-1-yl)oxy)copper]		decomposition	>330		>10
